For test [1], the target named is wild type PRC2 (wtPRC2) complex (Homo sapiens (Human), UniProt Q15910). The test is described as follows: EZH2 LC-MS assay (LC-Qualified). The class given is biochemical. The settings on record: (a) LC-Qualified assay. Here is the method:
Representative compounds of the invention were serially and separately diluted 3-fold in DMSO to obtain twelve concentrations. […] Solutions (6 μL) of 80 nM wild type PRC2 (wtPRC2) complex and 60 μM SAM in reaction buffer (20 mM Tris, pH 8.0, 0.1% BSA, 0.01% Triton, 0.5 mM DTT) were added to the wells that were then incubated with the test compound for 20 min. A 6 μL solution of 3 μM of the substrate peptide H3K27me1 (histone H3[21-44]-K27me1-biotin) and 6 μM regulatory peptide H3K27me3 (histone H3[21-44]-K27me3) in reaction buffer was added to initiate each reaction. […] The data were fit to a dose response equation using the program Helios to get the IC50 values of the test compound.

Test [2] relates to B cell lymphoma cell KARPAS422. The experiment in a line: Analysis of cell proliferation, KARPAS422. It is filed as cell-based, human. To be noted: KARPAS422 after 14 days of treatment, read-out: antiproliferative activities IC50. Here is the method:
B cell lymphoma cell KARPAS422 was cultured using standard cell culture conditions in RPMI-1640 (Invitrogen, cat #11875) supplemented with 15% FBS (Invitrogen, cat #10099-141) in humidified incubator at 37° C., 5% CO2. To assess the effect of PRC2 inhibition on cell proliferation, exponentially growing cells were seeded at a density of 1×10^5 cells/mL in 12-well plate (Corning, cat #CLS3513). After cell seeding, a compound of the invention was added to the cell media (in concentrations ranging from 0 to 100 μM, 3× dilution series). Viable cell numbers were determined every 3-4 days for up to 14 days using Vi-CELL (Beckman Coulter). On days of cell counting, fresh growth media and compound were replenished and cells split back to a density of 1×10^5 cells/mL. Total cell number is expressed as split-adjusted viable cells per mL. The dose response curves and IC50 values were generated using Prism.

The target of a further test is EZH2 (Homo sapiens (Human), UniProt Q15910). The experiment in a line: ELISA (H3K27 methylation) assay in G401 cell. It is filed as cell-based. The settings on record: (b) ELISA Qualified assay, 48 h. Here is the method:
Representative compounds of the invention were serially and separately diluted 3-fold in DO to obtain a total of eight or twelve concentrations. Then the compounds were added to G401 cell cultured in 384-well plate at 1:500 dilution to obtain the highest concentration of 20 μM. The cells were further cultured for 48 h before ELISA procedure.
ELISA protocol: Cell lysates were transferred to the wells of a 384-well plate and the final volume was adjusted to 50 μL per well with PBS. The plate was sealed, centrifuged at 2,000 rpm for 2 min and incubated at 4° C. for about 16 h. The plate was washed with TBST buffer (1×TBS (10×TBS: 24.2 g Tris (Sigma, T6066), 80 g NaCl (Sigma, S3014) to 1 L of water and adjust pH to 7.6 with HCl) with 0.1% Tween-20). Blocking buffer (TBST, 5% BSA; 50 μL per well) was added and the plate was incubated for 1 h at rt. The blocking buffer was removed and primary antibody was added (30 μL per well). […] The primary antibody was incubated in the plate at rt for 1 h. The wells were washed with TBST and incubated with secondary antibody for 1 h at rt.
After 1 h of incubation at rt, the wells were washed with TBST. […] The signal was read using a PerkinElmer Envision Reader. The H3K27 methylation readouts were normalized using H3 signal and then percentage inhibition was calculated against the samples treated with DO. The data were fit to a dose response curve using the program Helios to get the IC50 values of the test compound.
In general terms: An ELISA detects its analyte on a solid surface through an enzyme-linked reagent.

Where [3] appears, read: Homo sapiens, KARPAS-422, 336 h.

Molecules are shown by their SMILES. Read-outs that look alike come from different tables or passages of the source.

These results are taken from patent US12544374B2, “AZA-quinoline compounds and uses thereof” (Novartis AG, priority 2019, dated 2026).

wild type PRC2 (wtPRC2) complex, sequence (Q15910 whole entry): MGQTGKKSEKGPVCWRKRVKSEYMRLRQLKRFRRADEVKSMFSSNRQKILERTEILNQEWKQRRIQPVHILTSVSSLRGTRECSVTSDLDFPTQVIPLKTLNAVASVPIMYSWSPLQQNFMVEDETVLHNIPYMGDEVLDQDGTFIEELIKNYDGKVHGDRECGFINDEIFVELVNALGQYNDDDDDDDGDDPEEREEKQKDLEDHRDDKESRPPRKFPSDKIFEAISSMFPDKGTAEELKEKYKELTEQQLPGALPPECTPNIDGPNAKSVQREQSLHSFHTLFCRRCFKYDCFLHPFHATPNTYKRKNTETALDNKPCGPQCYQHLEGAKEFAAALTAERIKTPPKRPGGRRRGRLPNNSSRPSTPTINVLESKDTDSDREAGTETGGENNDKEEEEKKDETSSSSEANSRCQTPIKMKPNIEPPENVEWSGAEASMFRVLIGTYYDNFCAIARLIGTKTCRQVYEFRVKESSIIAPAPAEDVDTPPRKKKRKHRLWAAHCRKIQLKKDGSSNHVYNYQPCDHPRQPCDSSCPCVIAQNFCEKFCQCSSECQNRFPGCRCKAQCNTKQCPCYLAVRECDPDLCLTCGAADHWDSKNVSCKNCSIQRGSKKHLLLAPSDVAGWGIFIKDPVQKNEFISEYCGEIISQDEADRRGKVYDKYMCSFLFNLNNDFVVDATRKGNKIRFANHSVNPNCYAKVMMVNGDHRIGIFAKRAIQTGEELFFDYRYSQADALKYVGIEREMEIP
wild type PRC2 (wtPRC2) complex, sequence (Q15022 whole entry partner): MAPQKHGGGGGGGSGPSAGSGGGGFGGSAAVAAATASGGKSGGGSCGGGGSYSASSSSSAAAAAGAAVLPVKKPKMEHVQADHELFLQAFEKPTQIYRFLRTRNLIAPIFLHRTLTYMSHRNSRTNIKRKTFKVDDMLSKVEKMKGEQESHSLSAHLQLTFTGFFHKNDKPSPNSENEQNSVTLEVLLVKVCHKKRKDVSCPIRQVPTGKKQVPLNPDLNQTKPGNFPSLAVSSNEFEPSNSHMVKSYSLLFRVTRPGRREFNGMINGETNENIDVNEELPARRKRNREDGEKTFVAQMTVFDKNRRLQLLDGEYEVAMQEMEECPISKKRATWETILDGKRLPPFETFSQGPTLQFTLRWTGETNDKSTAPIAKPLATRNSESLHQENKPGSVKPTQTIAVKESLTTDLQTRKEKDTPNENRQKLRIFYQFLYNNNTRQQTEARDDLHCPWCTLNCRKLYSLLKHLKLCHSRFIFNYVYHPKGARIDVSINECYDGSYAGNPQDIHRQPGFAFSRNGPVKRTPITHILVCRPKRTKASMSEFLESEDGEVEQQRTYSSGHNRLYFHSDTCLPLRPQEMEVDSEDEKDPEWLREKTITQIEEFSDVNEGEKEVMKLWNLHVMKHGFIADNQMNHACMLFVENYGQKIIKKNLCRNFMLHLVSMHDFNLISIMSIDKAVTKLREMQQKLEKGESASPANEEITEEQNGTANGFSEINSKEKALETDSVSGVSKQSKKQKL
wild type PRC2 (wtPRC2) complex, sequence (O75530 whole entry partner): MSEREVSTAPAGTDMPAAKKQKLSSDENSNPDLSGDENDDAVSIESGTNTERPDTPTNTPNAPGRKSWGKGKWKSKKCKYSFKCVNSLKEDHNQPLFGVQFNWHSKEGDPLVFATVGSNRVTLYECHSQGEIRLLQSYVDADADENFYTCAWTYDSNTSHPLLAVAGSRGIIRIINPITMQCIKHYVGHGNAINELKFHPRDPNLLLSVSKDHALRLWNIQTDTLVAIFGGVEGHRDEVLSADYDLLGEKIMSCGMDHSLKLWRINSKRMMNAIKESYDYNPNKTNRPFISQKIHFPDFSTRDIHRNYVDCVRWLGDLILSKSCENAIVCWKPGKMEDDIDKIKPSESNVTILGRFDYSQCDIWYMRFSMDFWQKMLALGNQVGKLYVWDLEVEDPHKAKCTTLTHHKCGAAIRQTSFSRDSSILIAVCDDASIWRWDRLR
wild type PRC2 (wtPRC2) complex, sequence (Q09028 whole entry partner): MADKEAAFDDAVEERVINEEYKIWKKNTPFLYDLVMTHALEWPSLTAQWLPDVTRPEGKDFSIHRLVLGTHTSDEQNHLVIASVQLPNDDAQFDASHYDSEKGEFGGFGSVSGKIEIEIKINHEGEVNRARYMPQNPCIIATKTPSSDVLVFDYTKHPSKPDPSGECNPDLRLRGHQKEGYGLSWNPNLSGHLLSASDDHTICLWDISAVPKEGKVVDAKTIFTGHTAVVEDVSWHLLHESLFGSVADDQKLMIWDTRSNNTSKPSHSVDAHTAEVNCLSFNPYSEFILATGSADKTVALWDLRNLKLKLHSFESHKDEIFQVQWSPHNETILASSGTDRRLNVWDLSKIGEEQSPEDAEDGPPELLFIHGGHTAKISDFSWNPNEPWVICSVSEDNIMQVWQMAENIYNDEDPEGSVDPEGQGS
wild type PRC2 (wtPRC2) complex, sequence (Q6ZN18 whole entry partner): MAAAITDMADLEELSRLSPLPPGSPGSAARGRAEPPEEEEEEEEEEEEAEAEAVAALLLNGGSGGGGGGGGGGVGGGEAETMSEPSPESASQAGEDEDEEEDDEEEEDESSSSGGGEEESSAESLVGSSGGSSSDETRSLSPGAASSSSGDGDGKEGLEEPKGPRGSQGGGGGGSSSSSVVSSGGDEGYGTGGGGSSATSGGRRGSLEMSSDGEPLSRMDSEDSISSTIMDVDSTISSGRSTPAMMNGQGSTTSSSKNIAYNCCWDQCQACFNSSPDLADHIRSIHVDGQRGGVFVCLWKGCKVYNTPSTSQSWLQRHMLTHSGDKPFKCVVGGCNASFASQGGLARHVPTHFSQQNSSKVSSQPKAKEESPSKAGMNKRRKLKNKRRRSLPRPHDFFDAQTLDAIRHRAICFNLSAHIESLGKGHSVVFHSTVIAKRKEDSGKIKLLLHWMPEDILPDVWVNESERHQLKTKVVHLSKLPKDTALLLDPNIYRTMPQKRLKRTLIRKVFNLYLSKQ
EZH2, sequence (Q15910 whole entry): as the sequence (Q15910 whole entry) above
EZH2, sequence (Q15022 whole entry partner): as the sequence (Q15022 whole entry partner) above
EZH2, sequence (O75530 whole entry partner): as the sequence (O75530 whole entry partner) above
EZH2, sequence (Q09028 whole entry partner): as the sequence (Q09028 whole entry partner) above

A word on the IC50: it is the concentration that gives 50% inhibition. `COc1nccc2ccc(N[C@H]3CC[C@H](CNc4ncc(N)cn4)CC3)nc12` [Compound C1, N^2-(((1,4-trans)-4-((8-methoxy-1,7-naphthyridin-2-yl)amino)cyclohexyl)methyl)pyrimidine-2,5-diamine]: the IC50 was found to be 0.121 µM in test [1], 20 nM in test [2] (setting [3]) and 0.042 µM at EZH2.
As to `O=C(Cc1ccc(NC[C@H]2CC[C@H](Nc3ccc4ccnc(Cl)c4n3)CC2)nc1)NC1COC1` [Compound C42, 2-(6-((((1,4-trans)-4-((8-chloro-1,7-naphthyridin-2-yl)amino)cyclohexyl)methyl)amino)pyridin-3-yl)-N-(oxetan-3-yl)acetamide], the IC50 was 0.018 µM in test [1], 2 nM in test [2] (setting [3]) and 0.007 µM against EZH2.
Regarding `C[C@H](C(=O)NC1COC1)c1cnc(NC[C@H]2CC[C@H](Nc3ccc4ccnc(Cl)c4n3)CC2)nc1` (relative stereo) [Compound C53, (S)-2-(2-((((1,4-trans)-4-((8-chloro-1,7-naphthyridin-2-yl)amino)cyclohexyl)methyl)amino)pyrimidin-5-yl)-N-(oxetan-3-yl)propanamide], the IC50 in test [2] is 0.3 nM.
As to `CN(C(=O)Cc1cnc(NC[C@H]2CC[C@H](Nc3ccc4ccnc(Cl)c4n3)CC2)nc1)C1COC1` [Compound C37, 2-(2-((((1,4-trans)-4-((8-chloro-1,7-naphthyridin-2-yl)amino)cyclohexyl)methyl)amino)pyrimidin-5-yl)-N-methyl-N-(oxetan-3-yl)acetamide], the 50% inhibitory concentration (IC50) in test [1] amounted to 0.015 µM; in test [2] (setting [3]), 0.7 nM; against EZH2, 0.002 µM.
The matching figures for `CC1(NCc2cnc(NC[C@H]3CC[C@H](Nc4ccc5ccnc(Cl)c5n4)CC3)nc2)COC1` [Compound C28, 8-chloro-N-((1,4-trans)-4-(((5-(((3-methyloxetan-3-yl)amino)methyl)pyrimidin-2-yl)amino)methyl)cyclohexyl)-1,7-naphthyridin-2-amine]: 0.031 µM, 2 nM and 0.005 µM.
The matching figures for `OCC1COC(c2cnc(NC[C@H]3CC[C@H](Nc4ccc5ccnc(Cl)c5n4)CC3)nc2)OC1` (mixture of isomers) [Compound C34, (2-(2-((((1,4-trans)-4-((8-chloro-1,7-naphthyridin-2-yl)amino)cyclohexyl)methyl)amino)pyrimidin-5-yl)-1,3-dioxan-5-yl)methanol]: 0.028 µM, 18 nM and 0.038 µM.
For `O=C(NC1COC1)[C@H](O)c1cnc(NC[C@H]2CC[C@H](Nc3ccc4ccnc(Cl)c4n3)CC2)nc1` [Compound C76, (R)-2-(2-((((1,4-trans)-4-((8-chloro-1,7-naphthyridin-2-yl)amino)cyclohexyl)methyl)amino)pyrimidin-5-yl)-2-hydroxy-N-(oxetan-3-yl)acetamide], in test [2] (setting [3]), the IC50 amounted to 1 nM.
As for `COc1nccc2ccc(N[C@H]3CC[C@H](CNc4ncc(C(=O)N5CCNCC5)cn4)CC3)nc12` [Compound C8, (2-((((1,4-trans)-4-((8-methoxy-1,7-naphthyridin-2-yl)amino)cyclohexyl)methyl)amino)pyrimidin-5-yl)(piperazin-1-yl)methanone], the 50% inhibitory concentration (IC50) came to 0.07 µM in test [1], 72 nM in test [2] (setting [3]) and 0.077 µM against EZH2.
On the same counts, the results for `O=C(Cc1cnc(NC[C@H]2CC[C@H](Nc3ccc4ccnc(Cl)c4n3)CC2)nc1)NC1COC1` [Compound C36, 2-(2-((((1,4-trans)-4-((8-chloro-1,7-naphthyridin-2-yl)amino)cyclohexyl)methyl)amino)pyrimidin-5-yl)-N-(oxetan-3-yl)acetamide] are 0.009 µM, 3 nM and 0.011 µM.
On the same counts, the results for `N#CCCN(C(=O)Cc1cnc(NC[C@H]2CC[C@H](Nc3ccc4ccnc(Cl)c4n3)CC2)nc1)C1COC1` [Compound C49, 2-(2-((((1,4-trans)-4-((8-chloro-1,7-naphthyridin-2-yl)amino)cyclohexyl)methyl)amino)pyrimidin-5-yl)-N-(2-cyanoethyl)-N-(oxetan-3-yl)acetamide] are 0.008 µM, 0.5 nM and 0.002 µM.
As for `C[C@@H](C(=O)N1CC(O)C1)c1cnc(NC[C@H]2CC[C@H](Nc3ccc4ccnc(Cl)c4n3)CC2)nc1` [Compound C71, (R)-2-(2-((((1,4-trans)-4-((8-chloro-1,7-naphthyridin-2-yl)amino)cyclohexyl)methyl)amino)pyrimidin-5-yl)-1-(3-hydroxyazetidin-1-yl)propan-1-one], the 50% inhibitory concentration (IC50) in test [2] (setting [3]) came out at 2 nM.
As to `Nc1cnc(NC[C@H]2CC[C@H](Nc3ccc4ccnc(Cl)c4n3)CC2)nc1` [Compound C14, N^2-(((1,4-trans)-4-((8-chloro-1,7-naphthyridin-2-yl)amino)cyclohexyl)methyl)pyrimidine-2,5-diamine], the IC50 in test [1] came to 0.116 µM; against EZH2, 0.056 µM.
The matching figures for `CN1CCN(C(=O)Cc2cnc(NC[C@H]3CC[C@H](Nc4ccc5ccnc(Cl)c5n4)CC3)nc2)CC1` [Compound C43, 2-(2-((((1,4-trans)-4-((8-chloro-1,7-naphthyridin-2-yl)amino)cyclohexyl)methyl)amino)pyrimidin-5-yl)-1-(4-methylpiperazin-1-yl)ethan-1-one]: 0.057 µM and 0.067 µM.
The matching figures for `CNc1nccc2ccc(N[C@H]3CC[C@H](CNc4ncc(C#N)cn4)CC3)nc12` [Compound C60, 2-((((1,4-trans)-4-((8-(methylamino)-1,7-naphthyridin-2-yl)amino)cyclohexyl)methyl)amino)pyrimidine-5-carbonitrile]: 0.022 µM and 0.021 µM.
Turning to `CS(=O)(=O)N1CCN(Cc2cnc(NC[C@H]3CC[C@H](Nc4ccc5ccnc(Cl)c5n4)CC3)nc2)CC1` [Compound C26, 8-chloro-N-((1,4-trans)-4-(((5-((4-(methylsulfonyl)piperazin-1-yl)methyl)pyrimidin-2-yl)amino)methyl)cyclohexyl)-1,7-naphthyridin-2-amine], the IC50 in test [1] is 0.012 µM; against EZH2, 0.006 µM.
The matching figures for `O=C(NCc1cnc(NC[C@H]2CC[C@H](Nc3ccc4ccnc(Cl)c4n3)CC2)nc1)C1CCN1` (stereo partly drawn) [Compound C58, N-((2-((((1,4-trans)-4-((8-chloro-1,7-naphthyridin-2-yl)amino)cyclohexyl)methyl)amino)pyrimidin-5-yl)methyl)azetidine-2-carboxamide]: 0.038 µM and 0.117 µM.
For the molecule `N#Cc1cnc(NC[C@H]2CC[C@H](Nc3ccc4ccnc(Cl)c4n3)CC2)nc1` [Compound C21, 2-((((1,4-trans)-4-((8-chloro-1,7-naphthyridin-2-yl)amino)cyclohexyl)methyl)amino)pyrimidine-5-carbonitrile], the IC50 (in test [1]; at EZH2) was 0.04 µM in each case.
For the molecule `O=C(Cc1cnc(NC[C@H]2CC[C@H](Nc3ccc4ccnc(Cl)c4n3)CC2)nc1)N1CCNCC1` [Compound C41, 2-(2-((((1,4-trans)-4-((8-chloro-1,7-naphthyridin-2-yl)amino)cyclohexyl)methyl)amino)pyrimidin-5-yl)-1-(piperazin-1-yl)ethan-1-one], the values for the concentration for half-maximal inhibition (IC50) (in test [1]; against EZH2) were 0.035 µM and 0.031 µM, respectively.
The matching figures for `COc1nccc2ccc(N[C@H]3CC[C@H](CNc4ncc(C(N)=O)cn4)CC3)nc12` [Compound C5, 2-((((1,4-trans)-4-((8-methoxy-1,7-naphthyridin-2-yl)amino)cyclohexyl)methyl)amino)pyrimidine-5-carboxamide]: 0.063 µM and 0.062 µM.
